In US9274101B2 (BIOLOG, Inc., priority 2001, dated 2016):

Tests used:
Assay type in all cases: cell-based, human
HL-60 cells [1] = experiment: HL-60 responses to selected compounds at a range of concentrations
How it was run: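 Washed HL-60 cells (5×10^4/well) in DME-R were exposed to test energy sources at final 0.033 to 20 mM for 24 h at 37 °C, then MTS/MPMS was added for a further 24 h. OD490 (ref 650 nm) was corrected with cell-free control plates and normalized to % of no-energy-source control.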

HepG2 cells = HepG2 cells on flat bottom plastic wells, energy sources at a range of concentrations
How it was run: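 HepG2 cells plated overnight at 4×10^4 cells/cm^2 in glucose-, glutamine- and pyruvate-free DME with 10% HI FBS, then exposed to each energy source at 0.033 to 20 mM final for 48 to 72 h at 37° C, 5% CO2. MTS/PMS colour read at 490 nm (reference 650 nm) after 4-24 h; cell-free plate OD subtracted, data normalised to % negative control (water, no energy source).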

[2] = tested on: Undifferentiated HL-60 cells; experiment: Energy use by undifferentiated HL-60 cells
HL-60 cells [3] = experiment: Effect of 10 mM citric acid on HL-60 energy utilization; settings: negative control without energy sources and without citric acid
[4] = energy source 0.03 mM with 10 mM citric acid
[5] = energy source 0.10 mM with 10 mM citric acid
[6] = energy source 0.33 mM with 10 mM citric acid
[7] = energy source 1.00 mM with 10 mM citric acid
[8] = energy source 3.3 mM with 10 mM citric acid
[9] = energy source 10 mM with 10 mM citric acid
[10] = energy source 15 mM with 10 mM citric acid
[11] = energy source 20 mM with 10 mM citric acid

SMILES: O=C(O)[C@@H]1C[C@@H](O)CN1 [hydroxy L-proline]
- response greater than the negative control (HL-60 cells [1]; 0.033 to 20 mM, 24 h culture + 24 h color development): < 30%
- HL-60 Cell Responses to Selected Compounds from PM1 and PM2 (HL-60 cells [1]; Conc. 0.03 mM): 125.0 % of negative control
- HL-60 Cell Responses to Selected Compounds from PM1 and PM2 (HL-60 cells [1]; Conc. 0.10 mM): 122.8 % of negative control
- HL-60 Cell Responses to Selected Compounds from PM1 and PM2 (HL-60 cells [1]; Conc. 0.33 mM): 121.5 % of negative control
- HL-60 Cell Responses to Selected Compounds from PM1 and PM2 (HL-60 cells [1]; Conc. 1.00 mM): 128.4 % of negative control
- HL-60 Cell Responses to Selected Compounds from PM1 and PM2 (HL-60 cells [1]; Conc. 3.3 mM): 129.6 % of negative control
- HL-60 Cell Responses to Selected Compounds from PM1 and PM2 (HL-60 cells [1]; Conc. 10 mM): 121.5 % of negative control
- HL-60 Cell Responses to Selected Compounds from PM1 and PM2 (HL-60 cells [1]; Conc. 15 mM): 111.8 % of negative control
- HL-60 Cell Responses to Selected Compounds from PM1 and PM2 (HL-60 cells [1]; Conc. 20 mM): 99.2 % of negative control
- HepG2 Cells Responses After 72 hours in Culture and a 4 hour Color Development Period (HepG2 cells; Conc. 0.03 mM): 97.0 % of negative control
- HepG2 Cells Responses After 72 hours in Culture and a 4 hour Color Development Period (HepG2 cells; Conc. 0.10 mM): 139.9 % of negative control
- HepG2 Cells Responses After 72 hours in Culture and a 4 hour Color Development Period (HepG2 cells; Conc. 0.33 mM): 162.2 % of negative control
- HepG2 Cells Responses After 72 hours in Culture and a 4 hour Color Development Period (HepG2 cells; Conc. 1.00 mM): 140.5 % of negative control
- HepG2 Cells Responses After 72 hours in Culture and a 4 hour Color Development Period (HepG2 cells; Conc. 3.3 mM): 126.8 % of negative control
- HepG2 Cells Responses After 72 hours in Culture and a 4 hour Color Development Period (HepG2 cells; Conc. 10 mM): 123.1 % of negative control
- HepG2 Cells Responses After 72 hours in Culture and a 4 hour Color Development Period (HepG2 cells; Conc. 15 mM): 101.3 % of negative control
- HepG2 Cells Responses After 72 hours in Culture and a 4 hour Color Development Period (HepG2 cells; Conc. 20 mM): 62.8 % of negative control
- Energy Use by Undifferentiated HL-60 Cells ([2]; Conc. 0.03 mM): 109.9 % of negative control
- Energy Use by Undifferentiated HL-60 Cells ([2]; Conc. 0.10 mM): 112.9 % of negative control
- Energy Use by Undifferentiated HL-60 Cells ([2]; Conc. 0.33 mM): 99.6 % of negative control
- Energy Use by Undifferentiated HL-60 Cells ([2]; Conc. 1.00 mM): 104.7 % of negative control
- Energy Use by Undifferentiated HL-60 Cells ([2]; Conc. 3.3 mM): 114.7 % of negative control
- Energy Use by Undifferentiated HL-60 Cells ([2]; Conc. 10 mM): 117.8 % of negative control
- Energy Use by Undifferentiated HL-60 Cells ([2]; Conc. 15 mM): 124.2 % of negative control
- Energy Use by Undifferentiated HL-60 Cells ([2]; Conc. 20 mM): 101.8 % of negative control
- Effect of 10 mM Citric Acid on HL-60 Energy Utilization (HL-60 cells [3]; [4]): 7.6 % of negative control
- Effect of 10 mM Citric Acid on HL-60 Energy Utilization (HL-60 cells [3]; [5]): 17.7 % of negative control
- Effect of 10 mM Citric Acid on HL-60 Energy Utilization (HL-60 cells [3]; [6]): 25.0 % of negative control
- Effect of 10 mM Citric Acid on HL-60 Energy Utilization (HL-60 cells [3]; [7]): 37.5 % of negative control
- Effect of 10 mM Citric Acid on HL-60 Energy Utilization (HL-60 cells [3]; [8]): 49.0 % of negative control
- Effect of 10 mM Citric Acid on HL-60 Energy Utilization (HL-60 cells [3]; [9]): 85.0 % of negative control
- Effect of 10 mM Citric Acid on HL-60 Energy Utilization (HL-60 cells [3]; [10]): 87.4 % of negative control
- Effect of 10 mM Citric Acid on HL-60 Energy Utilization (HL-60 cells [3]; [11]): 68.8 % of negative control

SMILES: COC(=O)CCC(=O)O [mono methyl succinate]
- activity at 30 µM (HL-60 cells [1]; Homo sapiens, HL-60, Conc. 0.03 mM, read-out: HL-60 Cell Responses to Selected Compounds from PM1 and PM2): 118%
- activity at 100 µM (HL-60 cells [1]; Homo sapiens, HL-60, Conc. 0.10 mM, read-out: HL-60 Cell Responses to Selected Compounds from PM1 and PM2): 130%
- activity at 330 µM (HL-60 cells [1]; Homo sapiens, HL-60, Conc. 0.33 mM, read-out: HL-60 Cell Responses to Selected Compounds from PM1 and PM2): 133%
- activity at 1000 µM (HL-60 cells [1]; Homo sapiens, HL-60, Conc. 1.00 mM, read-out: HL-60 Cell Responses to Selected Compounds from PM1 and PM2): 142%
- activity at 3300 µM (HL-60 cells [1]; Homo sapiens, HL-60, Conc. 3.3 mM, read-out: HL-60 Cell Responses to Selected Compounds from PM1 and PM2): 167%
- activity at 10000 µM (HL-60 cells [1]; Homo sapiens, HL-60, Conc. 10 mM, read-out: HL-60 Cell Responses to Selected Compounds from PM1 and PM2): 173%
- activity at 15000 µM (HL-60 cells [1]; Homo sapiens, HL-60, Conc. 15 mM, read-out: HL-60 Cell Responses to Selected Compounds from PM1 and PM2): 139%
- activity at 20000 µM (HL-60 cells [1]; Homo sapiens, HL-60, Conc. 20 mM, read-out: HL-60 Cell Responses to Selected Compounds from PM1 and PM2): 93.3%
- activity at 30 µM (HepG2 cells; Homo sapiens, HepG2, 72 h, Conc. 0.03 mM, read-out: HepG2 Cells Responses After 72 hours in Culture and a 4 hour Color Development Period): 144%
- activity at 100 µM (HepG2 cells; Homo sapiens, HepG2, 72 h, Conc. 0.10 mM, read-out: HepG2 Cells Responses After 72 hours in Culture and a 4 hour Color Development Period): 161%
- activity at 330 µM (HepG2 cells; Homo sapiens, HepG2, 72 h, Conc. 0.33 mM, read-out: HepG2 Cells Responses After 72 hours in Culture and a 4 hour Color Development Period): 179%
- activity at 1000 µM (HepG2 cells; Homo sapiens, HepG2, 72 h, Conc. 1.00 mM, read-out: HepG2 Cells Responses After 72 hours in Culture and a 4 hour Color Development Period): 180%
- activity at 3300 µM (HepG2 cells; Homo sapiens, HepG2, 72 h, Conc. 3.3 mM, read-out: HepG2 Cells Responses After 72 hours in Culture and a 4 hour Color Development Period): 200%
- activity at 10000 µM (HepG2 cells; Homo sapiens, HepG2, 72 h, Conc. 10 mM, read-out: HepG2 Cells Responses After 72 hours in Culture and a 4 hour Color Development Period): 224%
- activity at 15000 µM (HepG2 cells; Homo sapiens, HepG2, 72 h, Conc. 15 mM, read-out: HepG2 Cells Responses After 72 hours in Culture and a 4 hour Color Development Period): 357%
- activity at 20000 µM (HepG2 cells; Homo sapiens, HepG2, 72 h, Conc. 20 mM, read-out: HepG2 Cells Responses After 72 hours in Culture and a 4 hour Color Development Period): 238%
- activity at 30 µM ([2]; Homo sapiens, HL-60, 24 h, Conc. 0.03 mM, read-out: Energy Use by Undifferentiated HL-60 Cells): 104%
- activity at 100 µM ([2]; Homo sapiens, HL-60, 24 h, Conc. 0.10 mM, read-out: Energy Use by Undifferentiated HL-60 Cells): 99.9%
- activity at 330 µM ([2]; Homo sapiens, HL-60, 24 h, Conc. 0.33 mM, read-out: Energy Use by Undifferentiated HL-60 Cells): 112%
- activity at 1000 µM ([2]; Homo sapiens, HL-60, 24 h, Conc. 1.00 mM, read-out: Energy Use by Undifferentiated HL-60 Cells): 141%
- activity at 3300 µM ([2]; Homo sapiens, HL-60, 24 h, Conc. 3.3 mM, read-out: Energy Use by Undifferentiated HL-60 Cells): 182%
- activity at 10000 µM ([2]; Homo sapiens, HL-60, 24 h, Conc. 10 mM, read-out: Energy Use by Undifferentiated HL-60 Cells): 223%
- activity at 15000 µM ([2]; Homo sapiens, HL-60, 24 h, Conc. 15 mM, read-out: Energy Use by Undifferentiated HL-60 Cells): 261%
- activity at 20000 µM ([2]; Homo sapiens, HL-60, 24 h, Conc. 20 mM, read-out: Energy Use by Undifferentiated HL-60 Cells): 199%
- Effect of 10 mM Citric Acid on HL-60 Energy Utilization (HL-60 cells [3]; [4]): 4.9 % of negative control
- Effect of 10 mM Citric Acid on HL-60 Energy Utilization (HL-60 cells [3]; [5]): 13.0 % of negative control
- Effect of 10 mM Citric Acid on HL-60 Energy Utilization (HL-60 cells [3]; [6]): 16.9 % of negative control
- Effect of 10 mM Citric Acid on HL-60 Energy Utilization (HL-60 cells [3]; [7]): 51.7 % of negative control
- Effect of 10 mM Citric Acid on HL-60 Energy Utilization (HL-60 cells [3]; [8]): 163.6 % of negative control
- Effect of 10 mM Citric Acid on HL-60 Energy Utilization (HL-60 cells [3]; [9]): 210.0 % of negative control
- Effect of 10 mM Citric Acid on HL-60 Energy Utilization (HL-60 cells [3]; [10]): 192.3 % of negative control
- Effect of 10 mM Citric Acid on HL-60 Energy Utilization (HL-60 cells [3]; [11]): 173.9 % of negative control
